The source of these data is patent US20120245161A1 (SANOFI, priority 2009, published 2012).

SMILES strings stand for the structures. Several values for one entry are separate records, joined by “and”; a condition that tells them apart may be missing. Equal values may be shown once. Where a name gives a salt, the structure may show the parent alone.

The target in the first experiment is T1, recombinant human beta tryptase (Homo sapiens, UniProt P20231).
T1 construct: made in house; host or cells: yeast cells
T1 sequence (P20231 31-275): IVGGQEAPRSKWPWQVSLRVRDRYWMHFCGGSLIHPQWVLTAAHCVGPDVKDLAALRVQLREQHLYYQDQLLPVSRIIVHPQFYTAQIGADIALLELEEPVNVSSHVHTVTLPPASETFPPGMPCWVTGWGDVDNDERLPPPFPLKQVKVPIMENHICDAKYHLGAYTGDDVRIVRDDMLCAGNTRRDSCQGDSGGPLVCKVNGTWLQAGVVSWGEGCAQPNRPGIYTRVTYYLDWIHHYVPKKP
The experiment can be described thus: beta-Tryptase inhibition, chromogenic enzyme assay (substrate S2366, read at 405 nm). The format is biochemical. The note with it: Ki calculated from IC50: Ki=IC50/(1+[Substrate]/Km); 0.5 mM substrate, room temperature; read-out: Tryptase Ki. The source says: Inhibition of this catalytic activity may be measured by the in vitro enzyme assay and the cellular assay.
Tryptase inhibition activity is confirmed using either isolated human lung tryptase or recombinant human beta tryptase expressed in yeast cells. Essentially equivalent results are obtained using isolated native enzyme or the expressed enzyme. The assay procedure employs a 96 well microplate (Costar 3590) using L-pyroglutamyl-L-prolyl-L-arginine-para-nitroanilide (S2366: Quadratech) as substrate (essentially as described by McEuen et. al. Biochem Pharm, 1996, 52, pages 331-340). Assays are performed at room temperature using 0.5 mM substrate (2×Km) and the microplate is read on a microplate reader (Beckman Biomek Plate reader) at 405 nm wavelength.
Materials and Methods for Tryptase primary screen (Chromogenic assay)
S2366 (Stock solutions of 2.5 mM).
Purified recombinant beta Tryptase Stocks of 310 μg/mL. Protocol (Single point determination) • Add 60 μL of diluted substrate (final concentration of 500 μM in assay buffer) to each well • Add compound in duplicates, final concentration of 20 volume 20 • Add enzyme at a final concentration of 50 ng/mL in a volume of 20 • Total volume for each well is 100 • Agitate briefly to mix and incubate at room temp in the dark for 30 minutes • Read absorbencies at […] Each plate has the following controls: • Totals: 60 μL of substrate, 20 μL of buffer (with 0.2% final concentration of DMSO), • 20 μL of enzyme Non-specific: 60 μL of substrate, 40 μL of buffer (with 0.2% DMSO) Totals: 60 μL of substrate, 20 μL of buffer (No DMSO), 20 μL of enzyme Non-specific: 60 μL of substrate, 40 μL of buffer (No DMSO) Protocol (IC50 and Ki determination)
The protocol is essentially the same as above except that the compound is added in duplicates at the following final concentrations: 0.01, 0.03, 0.1, 0.3, 1, 3, 10 μM (All dilutions carried out manually). For every assay, whether single point or IC50 determination, a standard compound is used to derive IC50 for comparison. From the IC50 value, the Ki can be calculated using the following formula: Ki=IC50/(1+[Substrate]/Km).
Regarding `Cc1cccc2c(C(=O)N3CCC(c4cc(CN)ccc4F)CC3)cn(CCN3CCCC3)c12` [Example 13, [4-(5-Aminomethyl-2-fluoro-phenyl)-piperidin-1-yl]-[7-methyl-1-(2-pyrrolidin-1-yl-ethyl)-1H-indol-3-yl]-methanone dihydrochloride], the Ki is 75 nM.

Staying with this experiment, now noted: Tryptase Ki (nM), Ki calculated from IC50: Ki=IC50/(1+[Substrate]/Km); 0.5 mM substrate, room temperature.
In the case of `COCCn1cc(C(=O)N2CCC(c3cc(CN)ccc3F)CC2)c2cccc(OC(F)(F)F)c21` [Example 1, [4-(5-Aminomethyl-2-fluoro-phenyl)-piperidin-1-yl]-[1-(2-methoxy-ethyl)-7-trifluoromethoxy-1H-indol-3-yl]-methanone hydrochloride], the Ki is 47 nM.
Consider `Cc1cccc2c(C(=O)N3CCC(c4cccc(CN)c4)CC3)cn(CCN3CCOCC3)c12` [Example 2, [4-(3-Aminomethyl-phenyl)-piperidin-1-yl]-[7-methyl-1-(2-morpholin-4-yl-ethyl)-1H-indol-3-yl]-methanone hydrochloride], for which the Ki is 234 nM.
With `Cc1cccc2c(C(=O)N3CCC(c4cc(CN)ccc4F)CC3)cn(CCN3CCOCC3)c12` [Example 3, [4-(5-Aminomethyl-2-fluoro-phenyl)-piperidin-1-yl]-[7-methyl-1-(2-morpholin-4-yl-ethyl)-1H-indol-3-yl]-methanone hydrochloride], the Ki was 109 nM.
On the same count and under the same terms, as for `Cc1cccc2c(C(=O)N3CCC(c4cc(CN)ccc4F)CC3)cn(CCCc3ccccc3)c12` [Example 4, [4-(5-Aminomethyl-2-fluoro-phenyl)-piperidin-1-yl]-[7-methyl-1-(3-phenyl-propyl)-1H-indol-3-yl]-methanone hydrochloride], the figure is 1300 nM; as for `Cc1cccc2c(C(=O)N3CCC(c4cc(CN)ccc4F)CC3)cn(CCc3ccccc3)c12` [Example 5, [4-(5-Aminomethyl-2-fluoro-phenyl)-piperidin-1-yl]-(7-methyl-1-phenethyl-1H-indol-3-yl)-methanone hydrochloride], 96 nM and 56 nM; as for `COCCn1cc(C(=O)N2CCC(c3cc(CN)ccc3F)CC2)c2cccc(C3CC3)c21` [Example 6, [4-(5-Aminomethyl-2-fluoro-phenyl)-piperidin-1-yl]-[7-cyclopropyl-1-(2-methoxy-ethyl)-1H-indol-3-yl]-methanone hydrochloride], 20 nM.
On to `Cc1cccc2c(C(=O)N3CCC(c4cc(CN)ccc4F)CC3)cn(CCCN3CCOCC3)c12` [Example 7, [4-(5-Aminomethyl-2-fluoro-phenyl)-piperidin-1-yl]-[7-methyl-1-(3-morpholin-4-yl-propyl)-1H-indol-3-yl]-methanone hydrochloride], for which the Ki is 139 nM.
For the compound `Cc1cccc2c(C(=O)N3CCC(c4cc(CN)ccc4F)CC3)cn(CCC3CCCCN3C)c12` (stereo not drawn) [Example 8, [4-(5-Aminomethyl-2-fluoro-phenyl)-piperidin-1-yl]-{7-methyl-1-[2-(1-methyl-piperidin-2-yl)-ethyl]-1H-indol-3-yl}-methanone hydrochloride], the Ki was 35 nM.
Same read-out and setting: as for `COCCn1cc(C(=O)N2CCC(c3cc(CN)ccc3C(F)F)CC2)c2cccc(C)c21` [Example 9, [4-(5-Aminomethyl-2-difluoromethyl-phenyl)-piperidin-1-yl]-[1-(2-methoxy-ethyl)-7-methyl-1H-indol-3-yl]-methanone hydrochloride], the figure is 203 nM; as for `Cc1cccc2c(C(=O)N3CCC(c4cc(CN)ccc4F)CC3)cn(CCCc3cccnc3)c12` [Example 10, [4-(5-Aminomethyl-2-fluoro-phenyl)-piperidin-1-yl]-[7-methyl-1-(3-pyridin-3-yl-propyl)-1H-indol-3-yl]-methanone dihydrochloride], 175 nM.
Same read-out and setting: in the case of `COCCn1cc(C(=O)N2CCC(c3cc(CN)ccc3F)CC2)c2cccc(C(F)(F)F)c21` [Example 11, [4-(5-Aminomethyl-2-fluoro-phenyl)-piperidin-1-yl]-[1-(2-methoxy-ethyl)-7-trifluoromethyl-1H-indol-3-yl]-methanone hydrochloride] it was 56 nM; in that of `COCCn1cc(C(=O)N2CCC(c3cc(CN)ccc3F)CC2)c2cccc(C(F)F)c21` [Example 12, [4-(5-Aminomethyl-2-fluoro-phenyl)-piperidin-1-yl]-[7-difluoromethyl-1-(2-methoxy-ethyl)-1H-indol-3-yl]-methanone hydrochloride], 26 nM; in that of `COCCn1cc(C(=O)N2CCC(c3cc(CN)ccc3F)CC2)c2cccc(OC(F)F)c21` [Example 14, [4-(5-Aminomethyl-2-fluoro-phenyl)-piperidin-1-yl]-[7-difluoromethoxy-1-(2-methoxy-ethyl)-1H-indol-3-yl]-methanone hydrochloride], 83 nM.
As for `NCc1ccc(F)c(C2CCN(C(=O)c3cn(CCc4ccccc4)c4ccccc34)CC2)c1` [Example 15, [4-(5-Aminomethyl-2-fluoro-phenyl)-piperidin-1-yl]-(1-phenethyl-1H-indol-3-yl)-methanone hydrochloride], the Ki is 18 nM.
Still for that read-out and setting: in the case of `Cc1cccc2c(C(=O)N3CCC(c4cc(CN)ccc4F)CC3)cn(CCCF)c12` [Example 16, [4-(5-Aminomethyl-2-fluoro-phenyl)-piperidin-1-yl]-[1-(3-fluoro-propyl)-7-methyl-1H-indol-3-yl]-methanone hydrochloride] it was 97 nM; in that of `Cc1cccc2c(C(=O)N3CCC(c4cc(CN)ccc4F)CC3)cn(CCCO)c12` [Example 17, hydrochloride], 37 nM.
Still for that read-out and setting: in the case of `COCCn1cc(C(=O)N2CCC(c3cc(CN)ccc3F)CC2)c2cccc(C#N)c21` [Example 18, 3-[4-(5-Aminomethyl-2-fluoro-phenyl)-piperidine-1-carbonyl]-1-(2-methoxy-ethyl)-1H-indole-7-carbonitrile] it was 40 nM; in that of `COCCn1cc(C(=O)N2CCC(c3cc(CN)ccc3F)CC2)c2cccc(C3CCC3)c21` [Example 19, [4-(5-Aminomethyl-2-fluoro-phenyl)-piperidin-1-yl]-[7-cyclobutyl-1-(2-methoxy-ethyl)-1H-indol-3-yl]-methanone hydrochloride], 94 nM.
Regarding `Cc1cccc2c(C(=O)N3CCC(c4cc(CN)ccc4F)CC3)cn(CCO)c12` [Example 20, [4-(5-Aminomethyl-2-fluoro-phenyl)-piperidin-1-yl]-[1-(2-hydroxy-ethyl)-7-methyl-1H-indol-3-yl]-methanone hydrochloride], the Ki was 19 nM.
As for `Cc1cccc2c(C(=O)N3CCC(c4cc(CN)ccc4F)CC3)cn(CCOCCO)c12` [Example 21, [4-(5-Aminomethyl-2-fluoro-phenyl)-piperidin-1-yl]-{1-[2-(2-hydroxy-ethoxy)-ethyl]-7-methyl-1H-indol-3-yl}-methanone hydrochloride], the Ki was 28 nM.
As for `NCc1ccc(F)c(C2CCN(C(=O)c3cn(CCO)c4c(OC(F)(F)F)cccc34)CC2)c1` [Example 22, [4-(5-Aminomethyl-2-fluoro-phenyl)-piperidin-1-yl]-[1-(2-hydroxy-ethyl)-7-trifluoromethoxy-1H-indol-3-yl]-methanone hydrochloride], the Ki was 390 nM.
On the same count and under the same terms, as for `COCCn1cc(C(=O)N2CCC(c3cc(CN)ccc3OCC(=O)OC)CC2)c2cccc(C)c21` [Example 23, (4-Aminomethyl-2-{1-[1-(2-methoxy-ethyl)-7-methyl-1H-indole-3-carbonyl]-piperidin-4-yl}-phenoxy)-acetic acid methyl ester hydrochloride], the figure is 42 nM.
Same read-out and setting: as for `COCCn1cc(C(=O)N2CCC(c3cc(CN)ccc3OCC(=O)OC)CC2)c2cccc(OC(F)(F)F)c21` [Example 24, (4-Aminomethyl-2-{1-[1-(2-methoxy-ethyl)-7-trifluoromethoxy-1H-indole-3-carbonyl]-piperidin-4-yl}-phenoxy)-acetic acid methyl ester hydrochloride], the figure is 98 nM; as for `COCCn1cc(C(=O)N2CCC(c3cc(CN)ccc3OCC(=O)N(C)C)CC2)c2cccc(C)c21` [Example 25, 2-(4-Aminomethyl-2-{1-[1-(2-methoxy-ethyl)-7-methyl-1H-indole-3-carbonyl]-piperidin-4-yl}-phenoxy)-N,N-dimethyl-acetamide hydrochloride], 672 nM; as for `CNC(=O)COc1ccc(CN)cc1C1CCN(C(=O)c2cn(CCOC)c3c(C)cccc23)CC1` [Example 26, 2-(4-Aminomethyl-2-{1-[1-(2-methoxy-ethyl)-7-methyl-1H-indole-3-carbonyl]-piperidin-4-yl}-phenoxy)-N-methyl-acetamide hydrochloride], 306 nM.

The experiment is the same for the next values; noted with them: Tryptase Ki (nM), additional value in parentheses tagged "8923" (code not explained).
For `Cc1cccc2c(C(=O)N3CCC(c4cc(CN)ccc4F)CC3)cn(CCc3ccccc3)c12` [Example 5, [4-(5-Aminomethyl-2-fluoro-phenyl)-piperidin-1-yl]-(7-methyl-1-phenethyl-1H-indol-3-yl)-methanone hydrochloride], the Ki was found to be 11 nM.
